Conditions: for log10 BCF / log10 biotransformation half-life (days): fish

SMILES	melting point [°C]	boiling point [°C]	other results
CCCCCCCCCCCCN1CCCCCC1=O	-7		
O=C(O)C(c1ccc(Cl)cc1)c1ccc(Cl)cc1	168		
Cc1ccccc1NC(=N)Nc1ccccc1C	179		
C=CCl	-154	-13.3	log10 Henry constant (atm·m³/mol): -1.56; log10 vapour pressure (mmHg): 3.47
CNC(=O)O/N=C(\C)C(C)S(C)(=O)=O (stereo not drawn)	87		log10 vapour pressure (mmHg): -5.7
O=C(O)CC(CC(=O)O)C(=O)O	166		
c1ccc(CSc2ccccc2)cc1	43.5		
C[Si](C)(C)O[Si](C)(O[Si](C)(C)C)O[Si](C)(C)C			log10 vapour pressure (mmHg): -1.4
CCOc1cc(OP(=S)(OC)OC)nc(CC)n1	-3.35		log10 vapour pressure (mmHg): -4.1
COc1c2c(cc3c1OCO3)CCN(C)C2	56		
CCC(C)(C#N)/N=N/C(C)(C#N)CC (stereo not drawn)	50		
CCC=NO	40	132	
COC(=O)c1cccnc1	42.5	204	
Nc1cccc2cc3ccccc3cc12	116		
CNc1ccc(NCCO)c2c1C(=O)c1ccccc1C2=O	187		
Clc1ccc2c(Cl)c(Cl)ccc2c1Cl			log10 Koa: 8.28
CC(=O)OCCCCOC(C)=O	12	229	
NCCCN1CCN(CCCN)CC1	15		
Nc1ccc(S(=O)(=O)Nc2ccnn2-c2ccccc2)cc1	181		
C=C1C[C@]23C[C@@]1(O)CC[C@H]2[C@@]12C=C[C@H](O)[C@@](C)(C(=O)O1)[C@H]2[C@@H]3C(=O)O	234		

SMILES	melting point [°C]	boiling point [°C]	other results
C=C(C)C(=O)OCCCCOC(=O)C(=C)C	226		
CCNc1nc(Cl)nc(NCC(=O)OCC)n1	228		
CCOC(=O)c1ccccc1C(=O)c1ccccc1	59.5		
CN(C)c1cccc2ccccc12		280	
CCCCCCCCC(=O)CCCCCCCC	53	252	
CC(C)C=O	-65.9	64.5	log10 vapour pressure (mmHg): 2.24; ready biodegradability: readily biodegradable
CC1=C(C)C2CCC1C2		140	
COC1(C)CC(c2ccccc2)c2c(c3ccccc3oc2=O)O1 (stereo not drawn)	166		
CC(Cc1ccc(C(C)(C)C)cc1)CN1C[C@@H](C)O[C@@H](C)C1 (single isomer, unassigned)			log10 vapour pressure (mmHg): -4.59
CC(=O)O[C@]1(C(C)=O)CC[C@H]2[C@@H]3C[C@H](C)C4=CC(=O)C=C[C@]4(C)[C@@]3(F)[C@@H](O)C[C@@]21C	298		
C=CC1CN2CCC1CC2C(=O)c1ccnc2ccc(OC)cc12 (stereo not drawn)	108		
Clc1cccc2ccccc12	-2.5	259	log10 Henry constant (atm·m³/mol): -3.45; log10 Koa: 5.8; log10 vapour pressure (mmHg): -1.54; ready biodegradability: not readily biodegradable
Oc1ccccc1Cc1ccccc1O			ready biodegradability: not readily biodegradable
Cc1ncc(CO)c(C(=O)O)c1O	248		
CNC(=O)O/N=C/C(C)(C)S(C)=O (stereo not drawn)			log10 Koc (L/kg): 0.56; log10 vapour pressure (mmHg): -4
CCCCCCCCCCCC[N+](C)(C)Cc1ccccc1			ready biodegradability: not readily biodegradable
CC(C)(N)c1ccccc1		196	
CCOC(CCCN)OCC		196	
Cc1cccc(I)c1	-27.2	213	
Clc1cc2oc3cc(Cl)c(Cl)cc3c2cc1Cl	227		log10 Henry constant (atm·m³/mol): -4.78; log10 Koa: 10; log10 BCF: 3.61; log10 biotransformation half-life (days): 0.56

SMILES	melting point [°C]	boiling point [°C]	other results
O=C(O)C(Br)C(Br)C(=O)O (stereo not drawn)			ready biodegradability: not readily biodegradable; log10 BCF: 0.81
CCSC(=O)COc1ccc(Cl)cc1C	41.5		log10 vapour pressure (mmHg): -3.8
CC(C)C1CCCCC1	-89.4	155	log10 vapour pressure (mmHg): 0.681
c1ccc(C(c2ccccc2)(c2ccccc2)N2CCOCC2)cc1	175		
Brc1ccc2c3c(cccc13)CC2	52	335	
CC(C)(C)NCC(O)COc1cccc2c1C[C@H](O)[C@H](O)C2 (stereo partly drawn)	130		
CC(CNC(=O)c1ccccc1)C(=O)OCC(=O)[C@@]12OC(C)(C)O[C@@H]1C[C@H]1[C@@H]3CCC4=CC(=O)C=C[C@]4(C)[C@@]3(F)[C@@H](O)C[C@@]12C (stereo partly drawn)	205		
NC(=O)C(N)=O			log10 vapour pressure (mmHg): -7.2
C=C(C)OC(C)=O	-92.9	97	
C/C=C/C=C/C	-79	80	
CC(C)CCOC(=O)c1ccccc1O		278	ready biodegradability: readily biodegradable
ClC(Cl)=C(c1ccc(Cl)cc1)c1ccccc1Cl			log10 Koc (L/kg): 5.49; log10 vapour pressure (mmHg): -5.21
CN(C)Cc1c[nH]c2ccccc12	138		
Brc1ccc(Oc2ccc(Br)cc2Br)cc1			log10 Koa: 9.5; log10 vapour pressure (mmHg): -6.17; logP: 5.94; log10 BCF: 5.83; log10 biotransformation half-life (days): 1.25
COC(=O)c1cc(Cl)ccc1O	50		
COc1ccc(-c2ccccc2)cc1NNC(=O)OC(C)C	122		
CCOC(=O)c1ccc(C)cc1		232	log10 Koc (L/kg): 2.59
Cc1ccc(Cl)c(Cl)c1Cl	43.5	244	
Nc1nncs1	191		
CCc1ccc(O)cc1O	98.5		
